Key:
Type in all cases: ADME, organism-based
Details in all cases: in vivo
[1] = Tmax in Sprague-Dawley rat at 3 mg/kg, po
[2] = Clearance in Sprague-Dawley rat at 1 mg/kg, iv
[3] = Half life in Sprague-Dawley rat at 1 mg/kg, iv
[4] = AUC (0 to infinity) in Sprague-Dawley rat at 1 mg/kg, iv; set-up: dose 1 mg/kg, route intravenous, time infinity
[5] = AUC (0 to infinity) in Sprague-Dawley rat at 3 mg/kg, po; set-up: dose 3 mg/kg, time infinity, route oral
[6] = Oral bioavailability in Sprague-Dawley rat at 3 mg/kg
[7] = Cmax in Sprague-Dawley rat at 3 mg/kg, po; set-up: dose 3 mg/kg, route oral

CCc1nc(C(N)=O)c(Nc2ccc3c(c2)CCN(C2CCCC2)CC3)nc1NC1CCOCC1
Tmax [1]: 4 h
clearance [2]: 93.2 mL/min/kg
half-life [3]: 2.12 h
AUC(0-inf) [4]: 179 ng·h/mL
AUC(0-inf) [5]: 199 ng·h/mL
bioavailability [6]: 24.8%
Cmax [7]: 23.8 ng/mL

From ChEMBL document CHEMBL4422653, “Discovery of a potent tyrosine kinase AXL inhibitor bearing the 3-((2,3,4,5-tetrahydro-1H-benzo[d]azepin-7-yl)amino)pyrazine core” (Bioorg Med Chem Lett, 2019)
